Experimental data: ChEMBL document CHEMBL3639378, “Morpholinone compounds as factor IXA inhibitors” (2015)

Target: Coagulation factor IX (Homo sapiens, UniProt P00740)
Assay: Test substances dissolved in buffer A (50 mM α,α,α-tris (hydroxymethyl)methylamine (Tris), 100 mM NaCl, 5 mM CaCl2, 15% (v/v) ethylene glycol, pH 8.0) were mixed with factor IXa (2.0 μg/ml final concentration). The enzyme reaction was started by addition of SPECTROFLUOR FIXa (100 μM final concentration).

Chain of Coagulation factor IX (P00740 47-191 limits assumed): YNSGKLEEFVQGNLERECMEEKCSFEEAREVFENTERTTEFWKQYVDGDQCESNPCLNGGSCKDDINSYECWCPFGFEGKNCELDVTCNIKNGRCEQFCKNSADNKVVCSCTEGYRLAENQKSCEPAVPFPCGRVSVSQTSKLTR
Chain of Coagulation factor IX (P00740 227-461 limits assumed): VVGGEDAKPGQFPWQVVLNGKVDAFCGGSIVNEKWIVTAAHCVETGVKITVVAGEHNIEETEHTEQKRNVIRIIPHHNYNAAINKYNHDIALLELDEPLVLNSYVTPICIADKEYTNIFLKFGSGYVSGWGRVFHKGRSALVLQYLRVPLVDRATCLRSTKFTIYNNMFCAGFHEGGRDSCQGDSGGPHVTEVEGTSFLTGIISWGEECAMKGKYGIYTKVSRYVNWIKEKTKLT

IC50: 130 nM
Structure (SMILES): Cc1ccc(CN2CCO[C@H]([C@@H](O)C(=O)Nc3ccc(C(=N)N)cc3)C2=O)cc1
